Reference: BindingDB's records for doi:10.1016/j.bmc.2019.115235 (Shandong University, 2020)

Experiments:
[1] = target: T1, Hypoxia-inducible factor 1-alpha (Homo sapiens, UniProt Q16665); experiment: […] of HIF1 in human T47D cells
[2] = target: T1, Hypoxia-inducible factor 1-alpha; experiment: […] of HIF1 in human T47D cells after 30 mins by luciferase reporter gene assay

T1 sequence (Q16665 whole entry): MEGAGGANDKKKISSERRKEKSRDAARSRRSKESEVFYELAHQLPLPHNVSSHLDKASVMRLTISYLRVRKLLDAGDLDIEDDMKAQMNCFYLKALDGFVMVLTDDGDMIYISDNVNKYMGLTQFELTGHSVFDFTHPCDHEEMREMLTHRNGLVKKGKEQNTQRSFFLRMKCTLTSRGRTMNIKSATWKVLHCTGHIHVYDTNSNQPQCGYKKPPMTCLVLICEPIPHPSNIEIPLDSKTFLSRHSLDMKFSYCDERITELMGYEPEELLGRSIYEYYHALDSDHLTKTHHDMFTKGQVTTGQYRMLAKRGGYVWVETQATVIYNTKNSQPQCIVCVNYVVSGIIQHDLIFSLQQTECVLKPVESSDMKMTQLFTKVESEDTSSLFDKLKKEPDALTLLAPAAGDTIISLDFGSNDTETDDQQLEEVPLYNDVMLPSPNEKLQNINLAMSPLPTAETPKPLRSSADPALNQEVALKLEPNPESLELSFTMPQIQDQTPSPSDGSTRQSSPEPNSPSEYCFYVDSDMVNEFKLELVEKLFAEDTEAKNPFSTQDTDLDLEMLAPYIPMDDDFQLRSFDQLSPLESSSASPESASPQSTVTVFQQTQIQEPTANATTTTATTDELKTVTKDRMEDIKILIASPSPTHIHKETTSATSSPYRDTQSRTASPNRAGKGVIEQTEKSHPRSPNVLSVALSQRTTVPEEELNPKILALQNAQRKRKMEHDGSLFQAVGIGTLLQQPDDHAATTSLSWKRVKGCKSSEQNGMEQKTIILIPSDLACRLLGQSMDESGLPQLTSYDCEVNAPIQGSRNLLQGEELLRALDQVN

COc1ccc([C@@H](O)[C@@H](C)Oc2ccc([C@H]3O[C@H](c4ccc(OC)c(OC)c4)[C@H](C)[C@H]3C)cc2OC)cc1OC
IC50 [1]: 20 nM

COc1ccc([C@@H](O)[C@@H](C)Oc2ccc([C@@H]3CC[C@H](c4ccc(O[C@H](C)[C@H](O)c5ccc(OC)c(OC)c5)c(OC)c4)C3)cc2OC)cc1OC
IC50 [2]: 3 nM
